Measurements as given in patent US20250075041A1, “COMPOSITIONS FOR SALTWATER-STABLE HYDROGEL ADHESIVES AND METHODS OF USE THEREOF” (Washington University, priority 2023, published 2025).

Assay: Solubility of copolymers and monomer
Format: physicochemical

Nb-TEG-ZnTPP [compound 22]
solubility in H2O: not soluble in H2O
